Laboratory results: patent US11773129B2, “Methods of preventing or treating atherosclerosis with inhibitors of specific isoenzymes of human neuraminidase” (THE GOVERNORS OF THE UNIVERSITY OF ALBERTA, priority 2017, dated 2023)

Columns and labels:
Type in all cases: biochemical
NEU1 = target: T1, NEU1 (Homo sapiens, UniProt Q99519); test: IC50 inhibition assay using 4MU-NANA as the substrate, NEU1; conditions: 4MU-NANA as the substrate; read-out: IC50 NEU1
T1 construct: made in house; host or cells: HEK293 (lentiviral transduction), crude lysate
Method: Two weeks after transduction cells were harvested and a crude lysate showing ˜200 nmol/h mg of sialidase activity used in experiments.
Assays were performed with duplicates for each point and IC50 was obtained by plotting the data with Graphpad™ Prism 5.0.

NEU1, NEU2, NEU3, NEU4 = test: Isoenzyme specificity/selectivity from 4MU-NANA IC50 across the four human neuraminidases; conditions: for Target: isoenzyme(s) the compound is specific for, dual (bispecific) when ratio of IC50 is about 3 or less
NEU4 = target: T2, NEU4 (Homo sapiens, UniProt Q8WWR8); test: IC50 inhibition assay using 4MU-NANA as the substrate, NEU4; set-up: GST; made in house; host or cells: E. coli; conditions: 4MU-NANA as the substrate; read-out: IC50 NEU4
T2 sequence (Q8WWR8 1-484): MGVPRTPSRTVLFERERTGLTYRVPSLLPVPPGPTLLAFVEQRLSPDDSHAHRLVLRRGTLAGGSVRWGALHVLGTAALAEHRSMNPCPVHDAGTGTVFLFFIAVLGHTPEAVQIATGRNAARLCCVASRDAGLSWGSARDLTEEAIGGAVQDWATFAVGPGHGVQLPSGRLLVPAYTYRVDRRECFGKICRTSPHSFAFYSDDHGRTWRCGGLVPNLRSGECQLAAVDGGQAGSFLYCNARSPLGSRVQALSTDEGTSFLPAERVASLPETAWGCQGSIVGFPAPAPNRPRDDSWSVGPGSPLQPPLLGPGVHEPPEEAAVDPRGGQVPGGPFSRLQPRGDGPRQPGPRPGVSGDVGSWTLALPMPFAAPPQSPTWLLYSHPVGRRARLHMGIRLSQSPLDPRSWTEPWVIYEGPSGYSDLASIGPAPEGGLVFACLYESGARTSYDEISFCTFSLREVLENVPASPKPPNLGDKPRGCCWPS

NEU3 = target: T3, NEU3 (Homo sapiens, UniProt Q9UQ49); test: IC50 inhibition assay using 4MU-NANA as the substrate, NEU3; set-up: MBP (N); made in house; host or cells: E. coli; conditions: 4MU-NANA as the substrate; read-out: IC50 NEU3
T3 sequence (Q9UQ49 1-428): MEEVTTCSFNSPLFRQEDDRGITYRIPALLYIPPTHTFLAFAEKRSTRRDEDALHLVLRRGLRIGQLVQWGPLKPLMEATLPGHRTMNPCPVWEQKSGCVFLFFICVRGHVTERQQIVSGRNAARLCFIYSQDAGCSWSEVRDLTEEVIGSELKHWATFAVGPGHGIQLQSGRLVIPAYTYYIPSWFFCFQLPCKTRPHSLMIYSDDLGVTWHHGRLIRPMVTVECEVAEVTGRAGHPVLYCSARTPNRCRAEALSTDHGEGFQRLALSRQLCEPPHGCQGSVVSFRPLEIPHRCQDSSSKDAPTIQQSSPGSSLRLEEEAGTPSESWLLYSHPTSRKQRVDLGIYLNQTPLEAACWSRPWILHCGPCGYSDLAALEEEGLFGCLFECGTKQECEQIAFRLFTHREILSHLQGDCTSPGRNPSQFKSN

SMILES	IC50 (NEU1) [µM]	Target (NEU1, NEU2, NEU3, NEU4)	IC50 (NEU4) [µM]	IC50 (NEU3) [µM]	Selectivity (NEU1, NEU2, NEU3, NEU4; from 4MU-NANA IC50, for the isoenzyme(s) in column Target)
CC(=O)N[C@H]1[C@H]([C@H](O)[C@H](O)Cn2cc(-c3ccc(C(F)(F)F)cc3)nn2)OC(C(=O)O)=C[C@@H]1O [7g]	140 ± 30	NEU3/ NEU4	5 ± 0.9	3.3 ± 0.5	
CC(=O)N[C@@H]1C(NC(=N)N)C=C(C(=O)O)OC1C(O)C(O)Cn1cc(-c2ccc(C(=O)O)cc2)nn1 (stereo partly drawn) [8a]	> 500	NEU3	24 ± 2	0.61 ± 0.1	
CC(=O)N[C@@H]1C(O)C=C(C(=O)O)OC1C(O)C(O)Cn1cc(CNC(=O)c2ccccc2)nn1 (stereo partly drawn) [compound 26]	> 500	NEU4	1.1 ± 0.2	15 ± 1	
CCCCCC(=O)NC[C@@H](O)[C@@H](O)[C@@H]1OC(C(=O)O)=C[C@H](O)[C@H]1NC(=O)CCCCC [compound 64, 5-Hexanamido-9-hexanamido-2,6-anhydro-3,5-dideoxy-d-glycero-d-galacto-non-2-enonic acid]	4.3 ± 0.8	NEU1	> 500	> 500	
CC(=O)N[C@H]1[C@H]([C@H](O)[C@H](O)CNC(=O)c2cccc(N)c2)OC(C(=O)O)=C[C@@H]1O [compound 61, 5-Acetamido-9-(3-amino)benzamido-2,6-anhydro-3,5-dideoxy-b-glycero-D-galacto-non-2-enonic acid]	6.5 ± 0.7	NEU1	150 ± 40	35 ± 6	
CC(=O)N[C@@H]1C(O)C=C(C(=O)O)OC1C(O)C(O)CNC(=O)c1ccccc1 (stereo partly drawn) [compound 56, 5-Acetamido-9-benzamido-2,6-anhydro-3,5-dideoxy-D-glycero-D-galacto-non-2-enonic acid]	2.5 ± 0.3	NEU1	150 ± 10	34 ± 5	
CC(=O)Nc1cccc(C(=O)NC[C@@H](O)[C@@H](O)[C@@H]2OC(C(=O)O)=C[C@H](O)[C@H]2NC(C)=O)c1 [compound 60, 5-Acetamido-9-(3-acetamido)benzamido-2,6-anhydro-3,5-dideoxy-d-glycero-d-galacto-non-2-enonic acid]	6.5 ± 1.1	NEU1/ NEU3	52 ± 9	7.1 ± 0.7	
CCCCCC(=O)NC[C@@H](O)[C@@H](O)[C@@H]1OC(C(=O)O)=C[C@H](O)[C@H]1NC(=O)CC [compound 66, 5-Propionamido-9-hexanamido-2,6-anhydro-3,5-dideoxy-D-glycero-D-galacto-non-2-enonic acid]	1.4 ± 0.2	NEU1	210 ± 90	260 ± 70	
CC(=O)N[C@H]1[C@H]([C@H](O)[C@H](O)Cn2cc(-c3ccc(Oc4ccccc4)cc3)nn2)OC(C(=O)O)=C[C@@H]1O [7j]	> 500	NEU3/ NEU4	0.97 ± 0.24	1 ± 0.1	
CCCCCCC(=O)NCC(O)C(O)C1OC(C(=O)O)=CC(O)[C@H]1NC(C)=O (stereo partly drawn) [compound 52, 5-Acetamido-9-heptanamido-2,6-anhydro-3,5-dideoxy-D-glycero-D-galacto-non-2-enonic acid]	9.9 ± 1.3	NEU1	310 ± 30	39 ± 8	
CC(=O)N[C@H]1[C@H]([C@H](O)[C@H](O)Cn2cc(-c3ccc(F)cc3)nn2)OC(C(=O)O)=C[C@@H]1O [7f]	100 ± 40	NEU4	1.3 ± 0.2	17 ± 2	10
O=C(Cn1cc(-c2ccc(C(=O)O)cc2)nn1)N[C@@H]1C(O)C=C(C(=O)O)OC1C(O)C(O)CO (stereo partly drawn) [compound 43]	> 500	NEU2	400 ± 160	> 500	
CC(=O)N[C@@H]1C(O)C=C(C(=O)O)OC1C(O)C(O)Cn1cc(-c2ccc(NC(=O)c3ccccc3)cc2)nn1 (stereo partly drawn) [compound 27]	190 ± 70	NEU3/ NEU4	3.7 ± 0.4	2.9 ± 0.2	
CC(=O)Nc1ccc(C(=O)NCCCCC(=O)NC[C@@H](O)[C@@H](O)[C@@H]2OC(C(=O)O)=C[C@H](O)[C@H]2NC(C)=O)cc1 [compound 62, 5-Acetamido-9-(5-(4-acetamidobenzamido))pentanamido-2,6-anhydro-3,5-dideoxy-d-glycero-d-galacto-non-2-enonic acid]	240 ± 70	NEU3/ NEU4	46 ± 13	31 ± 5	
CC(C)CCC(=O)N[C@H]1[C@H]([C@H](O)[C@H](O)CO)OC(C(=O)O)=C[C@@H]1O [compound 36, 5-(4-Methylpentanamido)-2,6-anhydro-3,5-dideoxy-D-glycero-D-galacto-non-2-enonic acid]	1.7 ± 0.1	NEU1	370 ± 160	150 ± 20	
CC(=O)Nc1ccc(-c2cn(C[C@@H](O)[C@@H](O)[C@@H]3OC(C(=O)O)=C[C@H](O)[C@H]3NC(C)=O)nn2)cc1 [7b]	59 ± 5	NEU3/ NEU4	11 ± 1	5.5 ± 0.5	
O=C(O)C1=C[C@H](O)[C@@H](NC(=O)c2ccccc2)[C@H]([C@H](O)[C@H](O)CO)O1 [compound 39, 5-Benzamido-2,6-anhydro-3,5-dideoxy-D-glycero-D-galacto-non-2-enonic acid]	11 ± 1	NEU1	> 500	480 ± 100	
CC(=O)Nc1ccc(C(=O)NC[C@@H](O)[C@@H](O)[C@@H]2OC(C(=O)O)=C[C@H](O)[C@H]2NC(C)=O)cc1 [compound 58, 5-Acetamido-9-(4-acetamido)benzamido-2,6-anhydro-3,5-dideoxy-d-glycero-d-galacto-non-2-enonic acid]	1.9 ± 0.4	NEU1	24 ± 6	7.2 ± 1.2	
CC(=O)N[C@H]1[C@H]([C@H](O)[C@H](O)Cn2cc(-c3ccc(N)cc3)nn2)OC(C(=O)O)=C[C@@H]1O [7c]	76 ± 16	NEU3/ NEU4	12 ± 1	8.7 ± 0.9	
CC(=O)N[C@H]1[C@H]([C@H](O)[C@H](O)Cn2cc(-c3ccc(C)cc3)nn2)OC(C(=O)O)=C[C@@H]1O [7d]	51 ± 7	NEU3/ NEU4	3.9 ± 0.4	8.2 ± 1.3	
CCCC(=O)N[C@@H]1C(O)C=C(C(=O)O)OC1C(O)C(O)CO (stereo partly drawn) [compound 30, 5-Butyramido-2,6-anhydro-3,5-dideoxy-n-glycero-n-galacto-non-2-enonic acid]	8.4 ± 0.5	NEU1/ NEU4	8.4 ± 0.4	15 ± 2	
O=C(Cn1cc(-c2ccc(F)cc2)nn1)N[C@@H]1C(O)C=C(C(=O)O)OC1C(O)C(O)CO (stereo partly drawn) [compound 45]	> 500	NEU2	100 ± 20	240 ± 40	
CC(=O)N[C@@H]1C(O)C=C(C(=O)O)OC1C(O)C(O)Cn1cc(-c2ccc(C(=O)O)cc2)nn1 (stereo partly drawn) [7h]	240 ± 90	NEU3/ NEU4	3 ± 0.3	1.1 ± 0.1	
CC(C)CC(=O)N[C@H]1[C@H]([C@H](O)[C@H](O)CO)OC(C(=O)O)=C[C@@H]1O [compound 35, 5-(3-methylbutanamido)-2,6-anhydro-3,5-dideoxy-D-glycero-D-galacto-non-2-enonic acid]	32 ± 5	NEU1/ NEU2	> 500	> 500	
CC(=O)Nc1ccc(-c2cn(CC(=O)N[C@@H]3C(O)C=C(C(=O)O)OC3C(O)C(O)CO)nn2)cc1 (stereo partly drawn) [compound 48]	> 500	NEU2	> 500	> 500	
CCCCCCC(=O)N[C@H]1[C@H]([C@H](O)[C@H](O)CO)OC(C(=O)O)=C[C@@H]1O [compound 33, 5-Heptanamido-2,6-anhydro-3,5-dideoxy-D-glycero-D-galacto-non-2-enonic acid]	2.1 ± 0.2	NEU1	470 ± 200	210 ± 70	
